Measured values from PMC4113814, “Bioactive Cembrane Derivatives from the Indian Ocean Soft Coral, Sinularia kavarattiensis” (Marine Drugs, 2014).
≈ marks a conversion by molar mass, not a printed value.

Experiments:
[1] = test system: TNF-α; assay: TNF-α release in supernatants of LPS-treated primary microglial cells (ELISA); assay type: cell-based, Wistar rats; settings: 72 h; for TNF-α release: LPS-treated
Procedure: (§1) Primary microglial cell cultures were prepared from brains of newborn Wistar rats. Ethics approval for the experiments was granted by the EBIOTEC Review Board (Valter Lombardi, Iván Carrera and Lucía Fernández-Novoa; Project Identification Code: Sinularia Project October 2013; approved 30 October 2013). The neocortex of one-day-old postnatal rats was aseptically dissected out, and the meninges and blood vessels were carefully removed. Following cutting in a medium containing 20% horse serum, the suspension was filtered through a […] and transferred as a single cell suspension to culture dishes, using 5.0 mL of medium per dish. The cultures were incubated at 37 °C in an atmosphere containing 5% CO2. The culture medium consisted of Minimum Essential Medium Eagle, supplemented with L-glutamine, amino acids, vitamins, penicillin, gentamicin, sodium bicarbonate and 20% heat-inactivated horse serum. The medium was changed twice a week. After 1 week, the concentration of horse serum was reduced to 10%. After sixteen days in culture, cells were treated with 1 μg/mL of lipopolysaccharide (LPS). […] Positive controls were treated only with LPS, while negative controls were treated with complete medium. After 72 h of incubation, cells were counted, and 2.5 mL of the supernatants were collected from each well and frozen at −40 °C for cytokine analyses. All experiments were carried out twice.
(§2) The supernatants obtained from cell cultures were analyzed for TNF-α, IL-1β, IL-4, IL-6, IL-8, IL-10 and IL-18 using commercially available ELISA kits following the manufacturers’ instructions. All samples were assayed in duplicate, and equivocal results were repeated. The cytokine concentration was calculated from a standard curve of the corresponding recombinant cytokine.
(§3) The cytotoxicity of the compounds was measured by the colorimetric methyl thiazol tetrazolium (MTT) assay and scored as a percentage of the absorbance reduction of treated cultures versus untreated control cultures. Primary microglial cell cultures were seeded into 96-well microplates at 10^4 cells per well and allowed to grow for 24 h. […] The compounds were serially diluted in complete culture medium with two-fold dilutions (100, 50, 25, 12.5, 6.25, 3.12 and 1.56 μg/mL for in vitro cytotoxicity; 12.5, 6.25, 3.12, 1.56, 0.78 and 0.39 μg/mL for cytokine release). Different concentrations of the compounds were added to each well, and Tamoxifen was used as a positive control, with concentrations ranging from 50 to 1.56 μg/mL. Plates were incubated at 37 °C for 72 h under 5% CO2 atmosphere. Then, the 50 μL of MTT-PBS solution in culture medium were added to each well. The plates were further incubated for 4 h under the same conditions. The medium was then removed and replaced with 200 μL of DMSO to solubilize the MTT formazan product. The solutions were shaken for 20 min, and the absorbance was measured at 570 nm. […] Each value represents the mean of triplicate determinations. The IC50 values were calculated from the compound concentration-response curves.

[2] = test system: IL-4; assay: IL-4 release in supernatants of LPS-treated primary microglial cells (ELISA); assay type: cell-based, Wistar rats; settings: 72 h; for IL-4 release: LPS-treated
Procedure: as §1, §2
as §3, with “The compounds were serially diluted in complete culture medium with two-fold dilutions (100, 50, 25, 12.5, 6.25, 3.12 and 1.56 μg/mL for in vitro cytotoxicity; 12.5, 6.25, 3.12, 1.56, 0.78 and 0.39 μg/mL for cytokine release).” left out

[3] = test system: IL-1β; assay: IL-1β release in supernatants of LPS-treated primary microglial cells (ELISA); assay type: cell-based, Wistar rats; settings: 72 h; for IL-1β release: LPS-treated
Procedure: as §1, §2, §3

[4] = test system: IL-18; assay: IL-18 release in supernatants of LPS-treated primary microglial cells (ELISA); assay type: cell-based, Wistar rats; settings: 72 h; for IL-18 release: LPS-treated
Procedure: as §1, §2
as §3, with “The compounds were serially diluted in complete culture medium with two-fold dilutions (100, 50, 25, 12.5, 6.25, 3.12 and 1.56 μg/mL for in vitro cytotoxicity; 12.5, 6.25, 3.12, 1.56, 0.78 and 0.39 μg/mL for cytokine release).” left out

[5] = test system: IL-8; assay: IL-8 release in supernatants of LPS-treated primary microglial cells (ELISA); assay type: cell-based, Wistar rats; settings: 72 h; for IL-8 release: LPS-treated
Procedure: as §1, §2, §3

[6] = MTT cytotoxicity assay on primary microglial cell cultures; assay type: cell-based, Wistar rats; settings: Wistar, rat, mean of triplicate
Procedure: Primary microglial cell cultures were prepared from brains of newborn Wistar rats. Ethics approval for the experiments was granted by the EBIOTEC Review Board (Valter Lombardi, Iván Carrera and Lucía Fernández-Novoa; Project Identification Code: Sinularia Project October 2013; approved 30 October 2013). The neocortex of one-day-old postnatal rats was aseptically dissected out, and the meninges and blood vessels were carefully removed. Following cutting in a medium containing 20% horse serum, the suspension was filtered through a […] and transferred as a single cell suspension to culture dishes, using 5.0 mL of medium per dish. The cultures were incubated at 37 °C in an atmosphere containing 5% CO2. The culture medium consisted of Minimum Essential Medium Eagle, supplemented with L-glutamine, amino acids, vitamins, penicillin, gentamicin, sodium bicarbonate and 20% heat-inactivated horse serum. The medium was changed twice a week. After 1 week, the concentration of horse serum was reduced to 10%. After sixteen days in culture, cells were treated with 1 μg/mL of lipopolysaccharide (LPS). After six hours, different concentrations (1.0 μg/mL, 2.5 μg/mL and 5.0 μg/mL) of Compounds 1–4 and 6 were added to each well, and plates were incubated for 72 h at 37 °C in an atmosphere containing 5% CO2. Positive controls were treated only with LPS, while negative controls were treated with complete medium. After 72 h of incubation, cells were counted, and 2.5 mL of the supernatants were collected from each well and frozen at −40 °C for cytokine analyses. All experiments were carried out twice.
The cytotoxicity of the compounds was measured by the colorimetric methyl thiazol tetrazolium (MTT) assay and scored as a percentage of the absorbance reduction of treated cultures versus untreated control cultures. Primary microglial cell cultures were seeded into 96-well microplates at 10^4 cells per well and allowed to grow for 24 h. The initial concentration of Compounds 1–4 and 6 was 100 μg/mL in DMSO. The compounds were serially diluted in complete culture medium with two-fold dilutions (100, 50, 25, 12.5, 6.25, 3.12 and 1.56 μg/mL for in vitro cytotoxicity; 12.5, 6.25, 3.12, 1.56, 0.78 and 0.39 μg/mL for cytokine release). Different concentrations of the compounds were added to each well, and Tamoxifen was used as a positive control, with concentrations ranging from 50 to 1.56 μg/mL. Plates were incubated at 37 °C for 72 h under 5% CO2 atmosphere. Then, the 50 μL of MTT-PBS solution in culture medium were added to each well. The plates were further incubated for 4 h under the same conditions. The medium was then removed and replaced with 200 μL of DMSO to solubilize the MTT formazan product. The solutions were shaken for 20 min, and the absorbance was measured at 570 nm. […] Each value represents the mean of triplicate determinations. The IC50 values were calculated from the compound concentration-response curves.

[7] = test system: IL-10; assay: IL-10 release in supernatants of LPS-treated primary microglial cells (ELISA); assay type: cell-based, Wistar rats; settings: 72 h; for IL-10 release: LPS-treated
Procedure: as §1, §2, §3

[8] = test system: IL-6; assay: IL-6 release in supernatants of LPS-treated primary microglial cells (ELISA); assay type: cell-based, Wistar rats; settings: 72 h; for IL-6 release: LPS-treated
Procedure: as §1, §2, §3

[9] = test system: CHIKV replicon; assay: microbe, parasite or virus in culture; settings: Chikungunya virus; for inhibition at 100 µM: 48 h, read-out: inhibition of the CHIKV replicon (Rluc marker levels)
[10] = test system: CHIKV replicon; assay: CHIKV replicon assay, Cell-IQ live cell imaging, EGFP fluorescence intensity; settings: 48 h; for decrease in EGFP marker fluorescence intensity: 50 and 100 μM
[11] = test system: BHK-CHIKV-NCT cells; assay: Cell-IQ live cell imaging, cytotoxicity by cell classification (viable cells); settings: 48 h, control compounds
[12] = test system: BHK-CHIKV-NCT cells; assay: Cytotoxicity assay by ATP quantitation (CellTiter GLO)

C=C(C)[C@@H]1C/C=C(\C(=O)OC)CC(=O)C[C@]2(C)CC(=O)[C@H](CC(=O)C1)O2 [Compound 4]
TNF-α release ([1]; C1: 1.0 μg/mL): 33.2 ± 2.8 pg/mL
TNF-α release ([1]; C2: 2.5 μg/mL): 29.8 ± 2.5 pg/mL
TNF-α release ([1]; C3: 5.0 μg/mL): 32.5 ± 3.7 pg/mL
IC50 ([1]; Rattus norvegicus, read-out: TNF-α IC50): > 12.5 µg/mL
IL-4 release ([2]; C1: 1.0 μg/mL): 2.2 ± 0.2 pg/mL
IL-4 release ([2]; C2: 2.5 μg/mL): 2.3 ± 0.5 pg/mL
IL-4 release ([2]; C3: 5.0 μg/mL): 1.8 ± 0.2 pg/mL
IC50 ([2]; Rattus norvegicus, read-out: IL-4 IC50): > 12.5 µg/mL
IL-1β release ([3]; C1: 1.0 μg/mL): 1.01 ± 0.04 pg/mL
IL-1β release ([3]; C2: 2.5 μg/mL): 1.02 ± 0.04 pg/mL
IL-1β release ([3]; C3: 5.0 μg/mL): 1.01 ± 0.02 pg/mL
IC50 ([3]; Rattus norvegicus, read-out: IL-1β IC50): > 12.5 µg/mL
IL-18 release ([4]; C2: 2.5 μg/mL): 312 ± 8.2 pg/mL
IL-18 release ([4]; C3: 5.0 μg/mL): 312 ± 8.2 pg/mL
IC50 ([4]; Rattus norvegicus, read-out: IL-18 IC50): > 12.5 µg/mL
IL-8 release ([5]; C2: 2.5 μg/mL): 247 ± 8 pg/mL
IL-8 release ([5]; C3: 5.0 μg/mL): 247 ± 8 pg/mL
IC50 ([5]; Rattus norvegicus, read-out: IL-8 IC50): > 12.5 µg/mL
IC50 at 72 h [6]: > 100 µg/mL
IL-10 release ([7]; C1: 1.0 μg/mL): 8.4 ± 2.6 pg/mL
IL-10 release ([7]; C2: 2.5 μg/mL): 7.9 ± 2.5 pg/mL
IL-10 release ([7]; C3: 5.0 μg/mL): 7.8 ± 3.2 pg/mL
IC50 ([7]; Rattus norvegicus, read-out: IL-10 IC50): > 12.5 µg/mL
IL-6 release ([8]; C1: 1.0 μg/mL): 12.1 ± 1.3 pg/mL
IL-6 release ([8]; C2: 2.5 μg/mL): 14.1 ± 1.1 pg/mL
IL-6 release ([8]; C3: 5.0 μg/mL): 12.1 ± 1.3 pg/mL
IC50 ([8]; Rattus norvegicus, read-out: IL-6 IC50): > 12.5 µg/mL

C=C1/C=C/[C@H](C(C)C)CCC(=C)[C@H](O)CC1 [Compound 5, ent-germacra-4(15),5E,10(14)-trien-1β-ol]
inhibition at 100 µM [9]: 0.5 to 63%
decrease in EGFP marker fluorescence intensity [10]: only moderate decreases

O=c1cnn([C@@H]2O[C@H](CO)[C@@H](O)[C@H]2O)c(=O)[nH]1 [Compound 6-azauridine, 6-azauridine, reference compound]
IC50 ([9]; read-out: IC50, inhibition of replicon (Rluc detection)): 2000 nM
inhibition at 10 µM ([9]; read-out: average inhibition (Rluc)): 69%
effect of control compound on number of viable cells / cell morphology [11]: without affecting cell morphology
effect of control compound on fluorescence intensity ([10]; control compounds): decreases the fluorescence intensity

C=C(C)C1CC(=O)C2C3C(=O)CC(C=C3C(C)=O)C(C(=O)O)C2C1 (stereo not drawn) [Compound 7, kavaranolide]
inhibition at 100 µM [9]: 0.5 to 63%
decrease in EGFP marker fluorescence intensity [10]: only moderate decreases

CC/C(=C(\c1ccccc1)c1ccc(OCCN(C)C)cc1)c1ccccc1 [Tamoxifen, reference compound]
IC50 at 72 h [6]: 3.6 µg/mL (≈ 9.69 µM)

polymyxin B [reference compound]
effect of control compound on number of viable cells / cell morphology [11]: radically decreases
average toxicity ([12]; 10,000 IU/mL): 93%
ED50 for the cytotoxic activity ([12]; positive control): 5900 IU/mL
